Experimental data from US11739064B2, “HDAC inhibitors and therapeutic methods using the same” (THE BOARD OF TRUSTEES OF THE UNIVERSITY OF ILLINOIS, priority 2015, dated 2023).

Columns and labels:
PANC1 cells = test: Scratch-wound cell migration assay; assay type: cell-based; design: key to Inhibition of cell migration, 24 h / Inhibition of cell migration, 48 h: Level of inhibition (high to low): +++, ++ or +; Level of inhibition (high to low): +++, ++ or +; Level of inhibition (high to low): +++, ++ or +; no inhibition: −
Method: FIG. 2 contains photographs of PANC1 cells treated with present compounds 9 and 6 taken 24 and 48 hours (post wounding) after a scratch was made through a confluent layer of cells; and
PANC1 Cell migration and effect on T and NK Cells. The effect of HDAC6 inhibition on cell migration and cellular cytotoxicity was evaluated. […] Thus, these HDAC6-selective inhibitors could function well to block metastasis. However, in contrast to the effect observed on cell migration, none of the compounds tested affected CD8+ T cell or natural killer (NK) cell-mediated cytotoxicity, despite the ability of the compounds to substantially increase the levels of acetyl-tubulin in these cell lines.

HDAC10 = target: T1, HDAC10 (Homo sapiens, UniProt Q969S8); test: In vitro HDAC inhibition assay, HDAC10; assay type: biochemical
T1 sequence (Q969S8 1-669): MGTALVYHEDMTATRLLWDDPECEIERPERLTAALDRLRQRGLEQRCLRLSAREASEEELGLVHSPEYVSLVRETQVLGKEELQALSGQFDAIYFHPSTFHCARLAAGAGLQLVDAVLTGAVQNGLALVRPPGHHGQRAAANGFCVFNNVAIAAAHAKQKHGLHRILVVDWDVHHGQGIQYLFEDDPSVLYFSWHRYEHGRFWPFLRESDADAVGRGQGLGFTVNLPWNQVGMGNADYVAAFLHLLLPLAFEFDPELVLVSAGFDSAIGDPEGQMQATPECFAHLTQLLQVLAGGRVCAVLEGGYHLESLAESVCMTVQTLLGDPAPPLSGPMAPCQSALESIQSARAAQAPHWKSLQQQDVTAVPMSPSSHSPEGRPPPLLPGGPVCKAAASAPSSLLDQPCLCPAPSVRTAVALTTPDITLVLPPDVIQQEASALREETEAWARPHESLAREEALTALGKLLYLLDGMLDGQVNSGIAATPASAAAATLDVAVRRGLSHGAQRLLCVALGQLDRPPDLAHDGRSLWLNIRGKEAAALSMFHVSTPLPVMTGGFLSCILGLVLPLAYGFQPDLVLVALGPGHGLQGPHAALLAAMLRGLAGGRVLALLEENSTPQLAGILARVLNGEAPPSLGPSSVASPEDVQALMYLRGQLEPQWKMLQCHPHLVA

L3.6pl = test: In vitro growth inhibition (GI), MTS cell proliferation assay (Table 5), L3.6pl; assay type: cell-based; settings: Homo sapiens, 72 hours post-treatment
HDAC8 = target: T2, HDAC8 (Homo sapiens, UniProt Q9BY41); test: HDAC isoform inhibition, HDAC8; assay type: biochemical
T2 sequence (Q9BY41 1-377): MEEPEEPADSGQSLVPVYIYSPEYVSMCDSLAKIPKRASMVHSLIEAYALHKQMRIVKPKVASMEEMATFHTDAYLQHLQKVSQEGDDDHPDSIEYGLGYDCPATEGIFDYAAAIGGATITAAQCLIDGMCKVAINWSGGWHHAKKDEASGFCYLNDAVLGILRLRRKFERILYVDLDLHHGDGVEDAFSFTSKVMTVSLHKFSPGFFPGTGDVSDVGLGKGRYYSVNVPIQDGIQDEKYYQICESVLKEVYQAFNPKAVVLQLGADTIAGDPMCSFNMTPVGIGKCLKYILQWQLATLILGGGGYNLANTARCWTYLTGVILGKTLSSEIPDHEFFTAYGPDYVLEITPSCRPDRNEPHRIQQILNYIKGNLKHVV

HDAC2 = HDAC2 (Homo sapiens, UniProt Q92769); test: In vitro HDAC inhibition assay, HDAC2; assay type: biochemical
Chain of HDAC2 (Q92769 whole entry): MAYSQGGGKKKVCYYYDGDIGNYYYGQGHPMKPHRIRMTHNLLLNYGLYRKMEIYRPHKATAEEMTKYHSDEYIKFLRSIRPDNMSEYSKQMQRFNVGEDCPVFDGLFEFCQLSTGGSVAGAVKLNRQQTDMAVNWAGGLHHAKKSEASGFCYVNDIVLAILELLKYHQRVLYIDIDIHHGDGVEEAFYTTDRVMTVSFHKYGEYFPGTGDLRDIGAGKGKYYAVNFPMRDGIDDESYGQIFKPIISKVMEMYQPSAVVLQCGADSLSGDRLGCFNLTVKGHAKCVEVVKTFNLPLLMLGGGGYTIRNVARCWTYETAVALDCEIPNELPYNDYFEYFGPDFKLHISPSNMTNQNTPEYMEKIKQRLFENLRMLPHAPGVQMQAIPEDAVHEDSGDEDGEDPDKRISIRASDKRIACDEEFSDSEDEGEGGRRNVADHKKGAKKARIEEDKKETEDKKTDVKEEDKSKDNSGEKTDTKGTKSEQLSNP

CC(C)(C)OC(=O)Nc1ccc(-c2cc(C(=O)NCCc3cc(C(=O)NO)no3)no2)cc1 [Compound 6, (4-{3-[2-(3-Hydroxycarbamoyl-isoxazol-5-yl)-ethylcarbamoyl]-isoxazol-5-yl}-phenyl)-carbamic acid tert-butyl ester]
Inhibition of cell migration, 24 h (PANC1 cells; PANC1, 24 h post wounding): +
Inhibition of cell migration, 48 h (PANC1 cells; PANC1, 48 h post wounding): −
Effect on PANC1 cell migration (PANC1 cells; compared to diluent-treated control cells): partial effect
Selectivity for HDAC6 (fold) over HDAC10 (HDAC10): >16000 fold
IC50 (HDAC10; NI = No inhibition at a concentration of 50 pM (footnote b), read-out: HDAC isoform IC50, HDAC10): > 100 µM
GI50 (L3.6pl): > 50 µM
IC50 (HDAC8): 0.81 µM
Selectivity for HDAC6 (fold) over HDAC8 (HDAC8): 135 fold
Selectivity for HDAC6 (fold) over HDAC2 (HDAC2): 20500 fold
IC50 (HDAC2; NI = No inhibition at a concentration of 50 pM (footnote b), read-out: HDAC isoform IC50, HDAC2): 123 µM
